In ChEMBL document CHEMBL1139383, “Carbonic anhydrase inhibitors. Comparison of chlorthalidone and indapamide X-ray crystal structures in adducts with isozyme II: when three water molecules and the keto-enol tautomerism make the difference” (J Med Chem, 2009):

Target: Carbonic anhydrase 3 (Homo sapiens) (UniProt P07451)
Sequence (P07451 whole entry): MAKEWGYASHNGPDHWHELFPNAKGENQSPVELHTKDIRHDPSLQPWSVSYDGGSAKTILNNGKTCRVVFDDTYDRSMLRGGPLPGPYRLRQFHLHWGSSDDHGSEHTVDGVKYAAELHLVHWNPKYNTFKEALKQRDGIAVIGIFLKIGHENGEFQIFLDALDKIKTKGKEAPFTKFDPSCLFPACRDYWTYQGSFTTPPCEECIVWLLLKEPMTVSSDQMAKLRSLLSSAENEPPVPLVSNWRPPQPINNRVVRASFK
Description: Inhibition of human recombinant CA3 by stopped flow CO2 hydration assay

NS(=O)(=O)c1cc(C2(O)NC(=O)c3ccccc32)ccc1Cl (stereo unspecified)
Ki: 11 µM
